Patent US20240391931A1 (Bristol-Myers Squibb Company, priority 2021, published 2024)

Columns and labels:
[1] = system: Ba/F3 HER2YVMA cells; test: Cellular proliferation in Ba/F3 HER2YVMA cells; format: cell-based, murine; details: Mus musculus, BaF3, read-out: Ba/F3 YVMA GI50
Description: (§1) Engineered lines expressing HER2YVMA and HER2 WT were prepared in HEK293 (human embryonic kidney cells), Ba/F3 (Interleukin 3 (IL3)-dependent murine pro B cell line), and BEAS2B (primary immortalized human bronchial epithelial cell line). Ba/F3, BEAS2B, and HEK293 cells were obtained from the American Type Culture Collection (ATCC, Manassas, VA). Parental Ba/F3 cells were grown in suspension in complete RPMI 1640 supplemented with 10% FBS and 1% P/S and 10 ng/ml interleukin 3 (IL3, Sigma-Aldrich). Hek293 and BEAS2B cells were grown as monolayers in DMEM supplemented with 10% FBS and 1% P/S. All cells were maintained and propagated in a humidified 5% CO2 incubator at 37° C.
(§2) To generate Ba/F3, BEAS2B, and Hek-293 cells engineered with lentivirus to express HER2 WT or HER2YVMA, the cells were transduced with lentiviruses at multiplicity of infection (MOI) of 1 or 10; transduced cells were selected and maintained with G418 ([…]) (Geneticin, Life Technologies, Carlsbad, CA). Ba/F3 engineered cells were subjected to gradual withdrawal of interleukin 3 (IL-3, Sigma-Aldrich). After selection, IL3 independent Ba/F3 HER2YVMA, and BEAS2B HER2YVMA cells were cloned by limiting dilution. Hek293 HER2YVMA cells were used as pool. HER2 and phospho HER2 levels were confirmed by flow cytometery and immunoassay (MSD, Meso-Scale Discovery, Rockville, Maryland).
(§3) Cell proliferation in non-adherent cells was investigated in Ba/F3 parental (IL3-dependent) and in the two IL3 independent cell clones tranduced to express mutant HER2 protein containing the YVMA insertion (Ba/F3 HER2YVMA). Cells were plated in DMEM supplemented with 10% FBS, 1% P/S, and 10 ng/ml IL3 (for parental Ba/F3 only) in 96-well white clear-bottom tissue culture plates (Costar, Sigma-Aldrich) at a starting cell density of 7500 cells. An 8-point standard curve with varying cell densities (starting at 100,000 cells and serially diluting down 2-fold) was prepared for each cell line and read after plating. Compound solutions were prepared in serum free media, and cells were treated as described above for adherent cells. Cell viability was determined by CellTiter Glo (Promega, Madison, WI) after 72 h. The results were converted to cell numbers using a standard curve; growth inhibition (GI50 values) were determined by Graph Pad Prism.
(§4) The results of these experiments show the ability of compounds to inhibit cell growth in HER2 dependent cell lines and a control cell line (Ba/F3 parental) are depicted in Table 4 in the columns titled “G150 (nM)”. Ba/F3 parental results fall under the heading “Ba/F3 parental-G150”, and Ba/F3 HER2YVMA fall under the heading “Ba/F3 YVMA-G150”.

[2] = system: Ba/F3 parental cells; test: Cellular proliferation in Ba/F3 parental (IL3-dependent) cells; format: cell-based, murine; details: Mus musculus, BaF3
Description: as §1, §3, §4

[3] = target: HER2YVMA (Homo sapiens, UniProt P04626, INS775YVMA); test: HER2 signaling (pHER2) in Ba/F3-HER2YVMA cells; format: cell-based; design: expressed in transfected cells; host or cells: HEK293 (pool), Ba/F3 (clones), BEAS2B (clones); lentiviral vector pCDH-CMV-MCS-EF1-Neo; details: read-out: Ba/F3 YVMA pHER2 EC50
Description: Cell culture, plasmid cloning, and lentiviral transduction were carried out according to standard procedures. The Human HER2 cDNA construct in pCMV6-Entry for the HER2 wildtype (WT) expression was obtained from Origene. The HER2 cDNA including the 12-nucleotide insertion corresponding to YVMA insertion (HER2YVMA) was codon optimized, synthesized and cloned by GenScript (Piscataway, NJ) in pcDNA3.1. The lentiviral constructs expressing HER2YVMA and HER2 WT were sub-cloned using PCR at System Biosciences (SBI, Mountainview, CA) into lentiviral vectors pCDH-CMV-MCS-EF1-Neo and lentiviral particles were generated.
as §1, §2
Compound treatment of Ba/F3-HER2YVMA suspension cells was done as described with minor modifications. Cells were plated at 300000 cell/well in 96-well round bottom plates in RPMI supplemented with 2% FBS and immediately dosed with compounds serially diluted in media without serum for a final concentration of 1% FBS, 0.1% DMSO. Cells were incubate with compounds for 1.5 hr, and plates were spun at 1500 rpm for 5 mins to remove media without disturbing pellet. Cells were lysed as described above.
HER2 signaling was evaluated using phospho (Tyr1248)/total ErbB2 whole cell lysate MSD plates (Meso-Scale Discovery, Gaithersburg, MD). The phospho HER2 signal was normalized to total HER2 for each sample; results are reported as % DMSO control. The normalized data was fitted using a sigmoidal curve analysis program (Graph Pad Prism version 6) with variable Hill slope to determine EC50 values.
The HER2 signaling results are provided in Table 4, under columns titled “BT474-pHER2 EC50”, “N87-pHER2 EC50”, and “NCI-H1781-pHER2 EC50”. Hek293-HER2YVMA ins fall under the heading “HEKYVMA-pHER2 EC50”, Ba/F3 HER2YVMA fall under the heading “Ba/F3 YVMA-pHER2 EC50” and BEAS2B-HER2YVMA fall under the heading “BEAS2B YVMA-pHER2 EC50”.

HER2YVMA, sequence (P04626 with tags, fused parts or gaps INS775YVMA): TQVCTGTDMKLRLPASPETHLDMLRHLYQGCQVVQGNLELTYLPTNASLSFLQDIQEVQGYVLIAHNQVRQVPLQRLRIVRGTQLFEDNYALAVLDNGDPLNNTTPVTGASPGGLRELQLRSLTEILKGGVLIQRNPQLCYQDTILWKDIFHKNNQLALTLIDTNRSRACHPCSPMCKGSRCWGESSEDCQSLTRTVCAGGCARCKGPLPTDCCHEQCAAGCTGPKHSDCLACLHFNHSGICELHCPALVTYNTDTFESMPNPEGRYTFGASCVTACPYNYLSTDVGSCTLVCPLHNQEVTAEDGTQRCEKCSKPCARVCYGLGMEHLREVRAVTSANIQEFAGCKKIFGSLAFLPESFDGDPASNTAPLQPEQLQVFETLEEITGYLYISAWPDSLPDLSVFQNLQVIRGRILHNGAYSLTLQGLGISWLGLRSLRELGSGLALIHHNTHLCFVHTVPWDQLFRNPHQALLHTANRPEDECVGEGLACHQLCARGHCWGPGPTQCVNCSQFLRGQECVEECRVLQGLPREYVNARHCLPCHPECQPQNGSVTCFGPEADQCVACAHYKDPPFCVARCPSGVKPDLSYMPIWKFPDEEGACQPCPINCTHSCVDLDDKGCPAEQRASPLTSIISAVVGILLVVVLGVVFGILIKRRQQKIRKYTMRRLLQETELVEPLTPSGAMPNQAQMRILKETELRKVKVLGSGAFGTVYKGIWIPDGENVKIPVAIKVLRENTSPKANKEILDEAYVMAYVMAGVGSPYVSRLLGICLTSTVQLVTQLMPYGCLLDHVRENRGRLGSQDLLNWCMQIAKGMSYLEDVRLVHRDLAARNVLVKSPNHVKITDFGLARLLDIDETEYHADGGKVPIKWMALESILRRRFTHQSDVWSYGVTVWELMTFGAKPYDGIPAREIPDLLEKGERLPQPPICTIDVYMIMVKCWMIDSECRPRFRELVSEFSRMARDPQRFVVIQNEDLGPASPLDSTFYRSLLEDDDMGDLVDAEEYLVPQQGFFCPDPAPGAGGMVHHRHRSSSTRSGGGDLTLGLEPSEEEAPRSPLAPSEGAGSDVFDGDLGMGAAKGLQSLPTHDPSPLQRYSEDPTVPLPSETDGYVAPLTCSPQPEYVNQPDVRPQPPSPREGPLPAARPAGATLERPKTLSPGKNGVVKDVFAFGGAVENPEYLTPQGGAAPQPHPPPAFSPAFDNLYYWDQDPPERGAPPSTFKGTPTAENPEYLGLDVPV

Compound	GI50 [1]	GI50 [2]	EC50 [3]
Cc1ccc(Oc2ccc(Nc3ncnc4sc5c(c34)C(C)CN(C(=O)C=CCN(C)C)C5)cc2C)cn1 (single isomer, unassigned) [Compound 106]	< 100 nM	1000 to 10000 nM	–
CN(C)C/C=C/C(=O)N1CCc2c(sc3ncnc(Nc4ccc(Oc5ccc6ncnn6c5)c(Cl)c4)c23)C1 [Compound 5, (E)-1-(4-((4-([1,2,4]triazolo[1,5-a]pyridin-6-yloxy)-3-chlorophenyl)amino)-5,8-dihydropyrido[4′,3′:4,5]thieno[2,3-d]pyrimidin-7(6H)-yl)-4-(dimethylamino)but-2-en-1-one]	–	–	< 100 nM
Cc1ccc(Oc2ccc(Nc3ncnc4sc5c(c34)CCN(C(=O)/C=C/CN(C)C(C)(C)C)C5)cc2C)cn1 [Compound 33]	< 100 nM	1000 to 10000 nM	< 100 nM
Cc1ccc(Oc2ccc(Nc3ncnc4sc5c(c34)CCN(C(=O)/C=C/CN3CC4C(CO)C4C3)C5)cc2C)cn1 (stereo not shown) [Compound 34]	< 100 nM	1000 to 10000 nM	< 100 nM
COc1ccc(Oc2ccc(Nc3ncnc4sc5c(c34)CCN(C(=O)/C=C/CN(C)C)C5)cc2C)cn1 [Compound 95, (E)-4-(Dimethylamino)-1-(4-((4-((6-methoxypyridin-3-yl)oxy)-3-methylphenyl)amino)-5,6-dihydropyrido[4′,3′:4,5]thieno[2,3-d]pyrimidin-7(8H)-yl)but-2-en-1-one]	< 100 nM	1000 to 10000 nM	–
Cc1ccc(Oc2ccc(Nc3ncnc4sc5c(c34)CN(C(=O)/C=C/CN(C)C)C5)cc2C)cn1 [Compound 99, (E)-4-(dimethylamino)-1-(4-((3-methyl-4-((6-methylpyridin-3-yl)oxy)phenyl)amino)-5,7-dihydro-6H-pyrrolo[3′,4′:4,5]thieno[2,3-d]pyrimidin-6-yl)but-2-en-1-one]	< 100 nM	1000 to 10000 nM	–
